Laboratory results from patent publication US8030335B2, “Use of liver X receptor agonists” (Laboratoires Fournier S.A., priority 2005, dated 2011).

Legend:
[1] = system: isolated pancreatic islets; test: Insulin content of pancreatic islets isolated from treated ZDF rats; format: in vivo, rat; details: 10 mg/kg oral for 3 weeks, vehicle 4.78±0.86, fa+ 27.74±6.85, mean±SEM
Protocol: Male ZDF fa/fa and ZDF fa+ rats were obtained from Genetic Models (Indianapolis, Ind.), at the age of 6 weeks and used in the experiments at 12 weeks of age, after 3 weeks of oral treatment with vehicle or GW3965 (10 mg/kg). Compounds were given once daily (at 17 h) via oral gavage. At the time of their use, the ZDF fa/fa rats weighed 310-350 g, whereas the age-matched ZDF fa+ rats weighed 245-285 g. ZDF fa+ and ZDF fa/fa animals had free access to diabetogenic chow (Purina 5008). Animals were housed 5 per cage in a temperature and humidity-controlled room with a 12/12-h light-dark cycle. Blood samples were taken 16 h after compound administration via the tail vein and measured on a Konelab 300 (Labsystem) clinical chemistry analyzer. Rat pancreatic islets were prepared by collagenase digestion and density gradient purification. The enzyme collagenase type XI (Sigma Chemical, St. Louis, Mo.) was used for digestion of the pancreas. After an overnight fast, animals were deeply anesthetized and killed. Then, the pancreatic duct was cannulated, and 20 ml of the digestion solution at 37° C. […] Insulin content was measured in the same islets after an overnight alcohol-acid extraction (Ethanol 75%+HCl 0.15 N). Insulin concentrations in the different media were determined by rat insulin ELISA test (Insulin Rat Elite plus, MERCODIA).

[2] = system: isolated pancreatic islets; test: Apoptosis by measurement of DNA fragments (Cell Death Detection ELISA) in isolated islets; format: in vivo, rat; details: islets of ZDF rats, 10 mg/kg oral, overnight culture in RPMI; vehicle 43.1±9.2%, fa+ 19.9±6.2%
Protocol: Rat pancreatic islets were prepared by collagenase digestion and density gradient purification. The enzyme collagenase type XI (Sigma Chemical, St. Louis, Mo.) was used for digestion of the pancreas. After an overnight fast, animals were deeply anesthetized and killed. Then, the pancreatic duct was cannulated, and 20 ml of the digestion solution at 37° C. (collagenase 30 mg/ml dissolved in 20 ml Hanks' balanced salt solution [HBSS]) (Sigma Chemical, St. Louis, Mo.) was slowly injected to distend the tissue. After distension, the pancreas was placed into a 20-ml glass beaker containing 5 ml of the digestion solution at 37° C. that was set into a shaking water bath at 37° C. for 8 minutes. After centrifugation at 633 g for 1 min at 4° C., the supernatant was removed and the islets were washed three times with HBSS by centrifugation at 633 g for 1 min at 4° C. For the purification procedure, the islets were resuspended in 4 ml of 80% Histopaque 1.077 (Sigma) and 4 ml HBSS. […] The apoptosis of islet cells was assessed by the Cell Death Detection enzyme-linked immunosorbent assay (ELISA) plus Kit from Roche, according to the procedures recommended by the manufacturer and applied to rat islet experiment. […] At the end of the 5-min incubation, absorbance of samples was read spectrophotometrically at 405 nm. The results were expressed as a percent of internal standard (nucleosomal particles). […]

SMILES: O=C(O)Cc1cccc(OCCCN(Cc2cccc(C(F)(F)F)c2Cl)CC(c2ccccc2)c2ccccc2)c1 [GW3965]
- insulin content of islets [1]: 13.05±2.49 ng/islet
- apoptosis, DNA fragments as percent of internal standard [2]: 34.0±7.5%
